Data on one molecule can be found in publication PMC5429603, “Discovery and characterization of verinurad, a potent and specific inhibitor of URAT1 for the treatment of hyperuricemia and gout” (Scientific Reports, 2017).

For assay [1], the target named is T1, human URAT1 h-V18L (Homo sapiens, UniProt Q96S37, V18L).
T1 construct: expressed in transfected cells; host or cells: HEK-293T
As to the kind of experiment: URAT1 activity assay, h-V18L. As to conditions: TM1 point mutant, read-out: Verinurad affinity (IC50). Type of assay: cell-based. The text has this:
(§1) Human URAT1 (GenBank BC053348.1, Homo sapiens SLC22A12), rat URAT1 (NCBI NM_001034943.1, Rattus norvegicus Slc22a12) and human OAT4 (NCBI NM_018484.2, Homo sapiens SLC22A11) genes were purchased from Origene Technologies, Inc. and subcloned into pCMV6/neo using NotI. Where indicated, controls transfections used pCMV6/neo. Mutants were produced by site-directed mutagenesis using the QuikChange Lightning Multi Site-Directed Mutagenesis Kit (Agilent Technologies). […] Mutagenic primer sequences are provided in ref. [15] and mutagenic primer sequences for previously unreported mutants shown in Supplementary Table 1. All constructs used in this study were untagged. Human OAT1 was purchased from Fisher Scientific (catalog # MHS1010–7508183 in pSPORT6, NCBI NM_153276.2, Homo sapiens SLC22A6).
(§2) HEK-293T cells were maintained in DMEM/high glucose/L-glutamine/HEPES supplemented with 1 mM sodium pyruvate (Life Technologies) and 10% FBS (PAA Laboratories) at 37 °C in 5% CO2. […]
(§3) URAT1 and OAT4 activity assays were performed in assay buffer consisting of 25 mM MES pH 5.5 (from a 1 M MES solution [Sigma] adjusted to pH 5.5 with sodium hydroxide), 125 mM sodium gluconate, 4.8 mM potassium gluconate, 1.2 mM monobasic potassium phosphate, 1.2 mM magnesium sulfate, 1.3 mM calcium gluconate and 5.6 mM glucose. […] Each treatment was measured in triplicate.

For assay [2], the system named is healthy human volunteers. Also on record: method as in PMID 28744099. As to conditions: humans; cited from earlier work.
Assay [3] addresses T2, human URAT1 h-F449Y (Homo sapiens, UniProt Q96S37, F449Y).
T2 construct: expressed in transfected cells; host or cells: HEK-293T
T2 sequence (Q96S37 1-553 F449Y): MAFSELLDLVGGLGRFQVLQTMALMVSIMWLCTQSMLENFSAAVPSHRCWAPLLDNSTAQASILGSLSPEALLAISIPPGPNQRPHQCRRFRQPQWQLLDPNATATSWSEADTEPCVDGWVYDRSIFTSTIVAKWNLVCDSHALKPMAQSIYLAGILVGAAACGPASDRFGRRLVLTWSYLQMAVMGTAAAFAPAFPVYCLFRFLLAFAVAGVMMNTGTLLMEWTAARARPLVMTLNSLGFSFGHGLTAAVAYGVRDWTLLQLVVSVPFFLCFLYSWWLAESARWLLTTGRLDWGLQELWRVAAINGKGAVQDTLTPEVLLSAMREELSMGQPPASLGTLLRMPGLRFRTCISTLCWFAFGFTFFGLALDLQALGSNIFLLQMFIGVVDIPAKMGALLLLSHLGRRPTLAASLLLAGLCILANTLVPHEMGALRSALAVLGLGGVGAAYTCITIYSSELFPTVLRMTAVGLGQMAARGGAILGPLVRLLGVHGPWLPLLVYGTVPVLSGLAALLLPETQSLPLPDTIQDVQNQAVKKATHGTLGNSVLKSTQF
Briefly: URAT1 activity assay, h-F449Y. Format: cell-based.
Description: as §1
HEK-293T cells were maintained in DMEM/high glucose/L-glutamine/HEPES supplemented with 1 mM sodium pyruvate (Life Technologies) and 10% FBS (PAA Laboratories) at 37 °C in 5% CO2. To express URAT1, OAT4 or OAT1, plasmids were reverse transfected into HEK-293T cells. DNA (10 µg) was mixed with 30 µl of DreamFect Gold (Boca Scientific) in 2 ml OptiMem (Life Technologies). After 20 minutes, 18 ml of media containing 2 × 10^7 cells in suspension was added and mixed, and 200 µl per well were plated onto white clear-bottomed poly-D-lysine coated 96-well plates (BD Biosciences). The cells were assayed the following day.
URAT1 and OAT4 activity assays were performed in assay buffer consisting of 25 mM MES pH 5.5 (from a 1 M MES solution [Sigma] adjusted to pH 5.5 with sodium hydroxide), 125 mM sodium gluconate, 4.8 mM potassium gluconate, 1.2 mM monobasic potassium phosphate, 1.2 mM magnesium sulfate, 1.3 mM calcium gluconate and 5.6 mM glucose. URAT1 inhibitors were serially diluted into assay buffer and added to the cells for 5 minutes prior to addition of substrate. URAT1-expressing cells were incubated with 100 µM ^14C-uric acid for 10 minutes and OAT4-expressing cells were incubated with 20 µM carboxyfluorescein (Life Technologies, Inc.) for 5 minutes. Cells were then washed three times in 25 mM MES pH 5.5/125 mM sodium gluconate, and solubilized in Ultima Gold (Perkin Elmer) prior to liquid scintillation counting. Each treatment was measured in triplicate.

Assay [4] concerns the target T3, rat URAT1 r-N35S (Rattus norvegicus, UniProt Q3ZAV1, N35S).
T3 construct: expressed in transfected cells; host or cells: HEK-293T
Briefly: URAT1 activity assay, r-N35S. Type of assay: cell-based.
Description: as §1, §2, §3

Assay [5] concerns the target T4, human URAT1 h-L31V (Homo sapiens, UniProt Q96S37, L31V).
T4 construct: expressed in transfected cells; host or cells: HEK-293T
Briefly: URAT1 activity assay, h-L31V. Type of assay: cell-based. As to conditions: TM1 point mutant, read-out: Verinurad affinity (IC50).
Description: as §1, §2, §3

In assay [6] the test system is healthy human volunteers. As to the kind of experiment: Verinurad study in humans (sUA and FEUA after a single dose). Type of assay: in vivo. As to conditions: single 40 mg dose. Here is the method: The study was conducted in accordance with Good Clinical Practice and the Declaration of Helsinki and with independent ethics committee (Welwyn Clinical Pharmacology Ethics Committee, Hatfield, UK) approval. Informed consent was obtained from all subjects before participating in the study. […] Urine samples were collected from 0 to 6 hours, 6 to 12 hours and 12 to 24 hours post dosing to measure the urinary excretion of uric acid and creatinine. FEUA was calculated using equation 1:1 FEUA=([urineuricacid]×[serumcreatinine])/([serumuricacid]×[urinecreatinine]) To determine time-weighted average plasma verinurad concentrations (TWA), plasma verinurad levels were first measured from serial plasma collections.

For assay [7], the target named is T5, human URAT1 h-T21A (Homo sapiens, UniProt Q96S37, T21A).
T5 construct: expressed in transfected cells; host or cells: HEK-293T
T5 sequence (Q96S37 whole entry T21A): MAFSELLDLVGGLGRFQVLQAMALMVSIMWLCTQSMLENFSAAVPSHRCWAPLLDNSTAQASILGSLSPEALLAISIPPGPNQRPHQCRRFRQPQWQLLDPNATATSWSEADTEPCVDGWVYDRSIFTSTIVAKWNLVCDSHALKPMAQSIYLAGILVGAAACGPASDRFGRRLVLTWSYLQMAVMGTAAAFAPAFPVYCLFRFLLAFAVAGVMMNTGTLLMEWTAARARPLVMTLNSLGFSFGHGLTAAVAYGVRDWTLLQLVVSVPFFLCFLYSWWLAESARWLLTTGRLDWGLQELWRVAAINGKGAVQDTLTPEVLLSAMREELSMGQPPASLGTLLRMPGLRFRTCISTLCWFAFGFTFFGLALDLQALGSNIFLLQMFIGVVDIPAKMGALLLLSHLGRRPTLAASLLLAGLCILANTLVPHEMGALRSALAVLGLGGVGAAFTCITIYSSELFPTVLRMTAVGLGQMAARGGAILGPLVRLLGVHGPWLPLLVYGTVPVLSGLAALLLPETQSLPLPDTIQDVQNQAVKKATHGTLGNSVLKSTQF
Briefly: URAT1 activity assay, h-T21A. Format: cell-based. As to conditions: TM1 point mutant, read-out: Verinurad affinity (IC50).
Description: as §1, §2, §3

Assay [8] addresses T6, human URAT1 h-I481M (Homo sapiens, UniProt Q96S37, I481M).
T6 construct: expressed in transfected cells; host or cells: HEK-293T
As to the kind of experiment: URAT1 activity assay, h-I481M. Type of assay: cell-based.
Description: as §1, §2, §3

Assay [9] has as its target T7, rat URAT1 r-V25M (Rattus norvegicus, UniProt Q3ZAV1, V25M).
T7 construct: expressed in transfected cells; host or cells: HEK-293T
Briefly: URAT1 activity assay, r-V25M. Format: cell-based.
Description: as §1, §2, §3

Assay [10] concerns the target T8, human URAT1-F365Y (Homo sapiens, UniProt Q96S37, F365Y).
T8 construct: expressed in transfected cells; host or cells: HEK-293T
As to the kind of experiment: URAT1 activity assay, h-F365Y. Type of assay: cell-based.
Description: as §1, §2, §3

In assay [11] the target is T9, human URAT1 h-M29L (Homo sapiens, UniProt Q96S37, M29L).
T9 construct: expressed in transfected cells; host or cells: HEK-293T
T9 sequence (Q96S37 whole entry M29L): as the sequence (Q96S37 whole entry T21A) above, with A21T, M29L counted along it
Briefly: URAT1 activity assay, h-M29L. Format: cell-based. As to conditions: TM1 point mutant, read-out: Verinurad affinity (IC50).
Description: as §1, §2, §3

Some results are limits rather than exact numbers.

T3 sequence (Q3ZAV1 whole entry N35S): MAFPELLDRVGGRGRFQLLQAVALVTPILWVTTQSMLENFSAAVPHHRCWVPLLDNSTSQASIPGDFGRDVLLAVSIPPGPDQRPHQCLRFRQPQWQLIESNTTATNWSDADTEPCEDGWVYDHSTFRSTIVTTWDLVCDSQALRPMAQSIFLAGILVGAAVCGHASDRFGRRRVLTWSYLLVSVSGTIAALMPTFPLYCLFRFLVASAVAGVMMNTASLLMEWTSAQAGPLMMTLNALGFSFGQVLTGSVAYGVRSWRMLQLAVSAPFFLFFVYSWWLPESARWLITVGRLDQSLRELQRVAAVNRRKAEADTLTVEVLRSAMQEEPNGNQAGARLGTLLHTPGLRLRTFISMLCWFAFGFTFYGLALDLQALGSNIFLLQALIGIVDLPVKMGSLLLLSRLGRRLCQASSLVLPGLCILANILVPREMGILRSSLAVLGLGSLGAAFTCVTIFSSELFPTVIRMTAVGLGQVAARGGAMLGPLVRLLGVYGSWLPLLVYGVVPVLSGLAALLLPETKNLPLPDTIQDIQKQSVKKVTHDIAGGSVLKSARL
T6 sequence (Q96S37 whole entry I481M): as the sequence (Q96S37 whole entry T21A) above, with A21T, I481M counted along it
T7 sequence (Q3ZAV1 whole entry V25M): as the sequence (Q3ZAV1 whole entry N35S) above, with V25M, S35N counted along it
T8 sequence (Q96S37 whole entry F365Y): as the sequence (Q96S37 whole entry T21A) above, with A21T, F365Y counted along it
T1 sequence (Q96S37 whole entry V18L): as the sequence (Q96S37 whole entry T21A) above, with V18L, A21T counted along it
T4 sequence (Q96S37 whole entry L31V): as the sequence (Q96S37 whole entry T21A) above, with A21T, L31V counted along it

For `CC(C)(Sc1ccncc1-c1ccc(C#N)c2ccccc12)C(=O)O` [Verinurad, 2-((3-(4-cyanonaphthalen-1-yl)pyrindin-4-yl)thio)-2-methylpropanoic acid], the half-maximal inhibitory concentration (IC50) in [1] came to 26 ± 15 nM; in [3] (h-F449Y binding site point mutant), 25 nM; in assay [4] (TM1 point mutant, read-out: Verinurad affinity (IC50)), 10000 ± 1500 nM; in assay [5] it was 31 ± 10 nM; in assay [7], 26 ± 12 nM; in [8] (TM11 point mutant, read-out: Verinurad affinity (IC50)) it was 53 ± 10 nM. Moreover, the IC50 in assay [9] (r-V25M, TM1 point mutant, read-out: Verinurad affinity (IC50)) turned out to be 18000 ± 3200 nM; in assay [10] (TM7 point mutant, read-out: Verinurad affinity (IC50)) it was 4000 ± 1700 nM; in assay [11], 11 ± 2.9 nM. Also, the “dose that significantly lowers sUA levels” value in [2] is not below 5 mg. For the same molecule, the “fold reduced affinity compared to human URAT1” value in [3] (h-F449Y) is “the same affinity”. Also, the “fold higher affinity relative to rat URAT1” value in assay [4] was 4 fold. The “time sUA is maintained below pretreatment levels” value in assay [6] is 24 h. Besides, the EC50 in assay [6] (healthy human volunteers, time-weighted average plasma concentration, read-out: half-maximal effective concentration in plasma for increase in FEUA) was found to be 22 nM. Further, the “fold reduction in affinity compared to human URAT1” value in assay [8] is reported as 2 fold. The “fold increase in affinity” value in [9] (r-V25M vs rat URAT1) came out at 2.3 fold. In addition, the “fold lower affinity relative to human URAT1” value in assay [10] is 160 fold.

As a reminder, the IC50 is the concentration needed to halve the response being measured.
